Assay results taken from patent US11926626B2, “Heterocyclic GLP-1 agonists” (Gasherbrum Bio, Inc., priority 2020, dated 2024).
Read-outs that look alike come from different tables or passages of the source.

Biological target: GLP-1 Receptor (Homo sapiens, UniProt P43220)
Assay: GLP-1R agonist cAMP stimulation assay (HEK293/GLP1R/CRE-Luc cells, HTRF cAMP)
Type: cell-based
Experimental: Activation of GLP-1 receptor is known to stimulate cyclic AMP (cAMP) production in cells which indicates primary coupling to the Gαs subunit of the G protein heterotrimeric complex.
To optimize functional activity directed toward Gαs coupling, a HEK293/CRE-Luc cell line developed by HDB stably expressing the GLP-1 Receptor was used. […] 1×10^5 cells/mL HEK293/GLP1R/CRE-LUC(HD Biosciences) cell suspensions prepared with assay buffer[DPBS containing 0.5 mM IBMX (Sigma, Cat #I5879) and 0.1% BSA (GENVIEW, Cat #FA016-100g)], 10 uL cell suspensions were added to each well of previous generated assay plate which already contains 50 nl compound at 200×concentration using ThermoFisher Multidrop Combi (1000 cells/well). Seal the plate and incubate at 37° C. with 5% CO2 for 30 min.
After incubation the cAMP assay signal was generated using cAMP dynamic 2 Kit (Cisbio). 5 μL cAMP-d2 working solution was added to each well, followed with 5 μL Anti-cAMP antibody-cryptate working solution added to each well using ThermoFisher Multidrop Combi. Incubate at room temperature for 1 hour protected from light.

[1] = HEK293/CRE-Luc cells stably expressing GLP-1 Receptor, 30 min, 37° C.

Chain of GLP-1 Receptor (P43220 24-463): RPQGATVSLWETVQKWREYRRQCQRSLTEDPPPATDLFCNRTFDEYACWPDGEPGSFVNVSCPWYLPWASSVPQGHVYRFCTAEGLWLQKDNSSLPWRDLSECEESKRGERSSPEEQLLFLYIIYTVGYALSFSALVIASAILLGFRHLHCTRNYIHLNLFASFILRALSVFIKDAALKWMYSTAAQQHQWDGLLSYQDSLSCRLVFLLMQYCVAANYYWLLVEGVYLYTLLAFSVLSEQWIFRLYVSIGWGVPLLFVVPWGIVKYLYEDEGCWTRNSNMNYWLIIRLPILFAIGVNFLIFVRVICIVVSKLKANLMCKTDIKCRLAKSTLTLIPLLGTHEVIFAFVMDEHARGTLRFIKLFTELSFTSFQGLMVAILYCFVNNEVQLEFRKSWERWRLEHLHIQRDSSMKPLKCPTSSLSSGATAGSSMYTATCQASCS

| Compound | GLP1R cAMP Stimulation DR: pEC50 [1] | other results |
| --- | --- | --- |
| Cc1ccc(OC2CCN(Cc3nc4ccc(C(=O)O)nc4n3CC3CCO3)CC2)nc1Cc1ccc(Cl)cc1F (stereo in doubt) [Compound 169a, 2-{[4-({6-[(4-chloro-2-fluorophenyl)methyl]-5-methylpyridin-2-yl}oxy)piperidin-1-yl]methyl}-3-{[(2S)-oxetan-2-yl]methyl}-3H-imidazo[4,5-b]pyridine-5-carboxylic acid] |  | EC50 (HEK293/CRE-Luc cells stably expressing GLP-1 Receptor, 30 min, 37° C., read-out: GLP1R cAMP Stimulation DR: EC50): 80 nM |
| O=C(O)c1ccc2nc(CC3CCN(C(=O)c4cccc(Cc5ccc(Cl)cc5F)n4)CC3)n(C[C@@H]3CCO3)c2n1 [Compound 106a, (S)-2-((1-(6-(4-Chloro-2-fluorobenzyl)picolinoyl)piperidin-4-yl)methyl)-3-(oxetan-2-ylmethyl)-3H-imidazo[4,5-b]pyridine-5-carboxylic acid] |  | GLP1R cAMP Stimulation DR: pEC50 (30 min, 37° C.): 6.33 |
| O=C(O)c1ccc2nc(CN3CCC(Oc4nc(Cc5ccc(Cl)cc5F)ccc4F)CC3)n(C[C@@H]3CCO3)c2n1 [Compound 111a, 2-{[4-({6-[(4-chloro-2-fluorophenyl)methyl]-3-fluoropyridin-2-yl}oxy)piperidin-1-yl]methyl}-3-{[(2S)-oxetan-2-yl]methyl}-3H-imidazo[4,5-b]pyridine-5-carboxylic acid] | 9.5 |  |
| O=C(O)c1ccc2nc(CN3CCC(Oc4ccnc(Cc5ccc(Cl)cc5F)n4)CC3)n(C[C@@H]3CCO3)c2n1 [Compound 113a, 2-{[4-({2-[(4-chloro-2-fluorophenyl)methyl]pyrimidin-4-yl}oxy)piperidin-1-yl]methyl}-3-{[(2S)-oxetan-2-yl]methyl}-3H-imidazo[4,5-b]pyridine-5-carboxylic acid] | 10.4 |  |
| O=C(O)c1ccc2nc(CN3CCC(Oc4cc(Cc5ccc(Cl)cc5F)ccc4F)CC3)n(C[C@@H]3CCO3)c2n1 [Compound 114a, 2-[(4-{5-[(4-chloro-2-fluorophenyl)methyl]-2-fluorophenoxy}piperidin-1-yl)methyl]-3-{[(2S)-oxetan-2-yl]methyl}-3H-imidazo[4,5-b]pyridine-5-carboxylic acid] | 8.8 |  |
| O=C(O)c1ccc2nc(CN3CCC(Oc4ccn(Cc5ccc(Cl)cc5F)n4)CC3)n(C[C@@H]3CCO3)c2c1 [Compound 116a, 2-{[4-({1-[(4-chloro-2-fluorophenyl)methyl]-1H-pyrazol-3-yl}oxy)piperidin-1-yl]methyl}-1-{[(2S)-oxetan-2-yl]methyl}-1H-1,3-benzodiazole-6-carboxylic acid] | 8.6 |  |
| O=C(O)c1ccc2nc(CN3CCC(Cc4cccc(Oc5ccc(Cl)cc5F)n4)CC3)n(C[C@@H]3CCO3)c2n1 [Compound 121a, 2-[(4-{[6-(4-chloro-2-fluorophenoxy)pyridin-2-yl]methyl}piperidin-1-yl)methyl]-3-{[(2S)-oxetan-2-yl]methyl}-3H-imidazo[4,5-b]pyridine-5-carboxylic acid] | 8.2 |  |
| O=C(O)c1ccc2nc(CN3CCC(Oc4cccc(Cc5ccc(Cl)cc5)n4)CC3)n(C[C@@H]3CCO3)c2n1 [Compound 124a, (S)-2-((4-((6-(4-chlorobenzyl)pyridin-2-yl)oxy)piperidin-1-yl)methyl)-3-(oxetan-2-ylmethyl)-3H-imidazo[4,5-b]pyridine-5-carboxylic acid] | 10.4 |  |
| O=C(O)c1ccc2nc(CN3CCC(Oc4cccc(Cc5cccc(Cl)c5)n4)CC3)n(C[C@@H]3CCO3)c2n1 [Compound 125a, (S)-2-((4-((6-(3-chlorobenzyl)pyridin-2-yl)oxy)piperidin-1-yl)methyl)-3-(oxetan-2-ylmethyl)-3H-imidazo[4,5-b]pyridine-5-carboxylic acid] | 8.9 |  |
| CC(c1cccc(OC2CCN(Cc3nc4ccc(C(=O)O)nc4n3C[C@@H]3CCO3)CC2)n1)c1ccc(Cl)cc1F (stereo partly drawn) [Compound 128a, 2-{[4-({6-[1-(4-chloro-2-fluorophenyl)ethyl]pyridin-2-yl}oxy)piperidin-1-yl]methyl}-3-{[(2S)-oxetan-2-yl]methyl}-3H-imidazo[4,5-b]pyridine-5-carboxylic acid] |  | GLP1R cAMP Stimulation DR: pEC50: 8.9 |
| O=C(O)c1ccc2nc(CN3CCC(Oc4cccc(Cc5ccc(Cl)cc5F)n4)C3)n(C[C@@H]3CCO3)c2n1 (stereo partly drawn) [Compound 130a, 2-{[3-({6-[(4-chloro-2-fluorophenyl)methyl]pyridin-2-yl}oxy)pyrrolidin-1-yl]methyl}-3-{[(2S)-oxetan-2-yl]methyl}-3H-imidazo[4,5-b]pyridine-5-carboxylic acid] | 7.3 |  |
| Cc1cn(Cc2ccc(Cl)cc2F)nc1OC1CCN(Cc2nc3ccc(C(=O)O)nc3n2C[C@@H]2CCO2)CC1 [Compound 133a, 2-{[4-({1-[(4-chloro-2-fluorophenyl)methyl]-4-methyl-1H-pyrazol-3-yl}oxy)piperidin-1-yl]methyl}-3-{[(2S)-oxetan-2-yl]methyl}-3H-imidazo[4,5-b]pyridine-5-carboxylic acid] | 8.6 |  |
| CC(=O)Nc1ccc2nc(CN3CCC(Oc4cccc(Cc5ccc(Cl)cc5F)n4)CC3)n(C[C@@H]3CCO3)c2c1 [Compound 134a, N-(2-{[4-({6-[(4-chloro-2-fluorophenyl)methyl]pyridin-2-yl}oxy)piperidin-1-yl]methyl}-1-{[(2S)-oxetan-2-yl]methyl}-1H-1,3-benzodiazol-6-yl)acetamide] |  | GLP1R cAMP Stimulation DR: pEC50 (30 min, 37° C.): 7.2 |
| N#Cc1ccc(Cc2cccc(OC3CCN(Cc4nc5ccc(C(=O)O)cc5n4C[C@@H]4CCO4)CC3)n2)c(F)c1 [Compound 135a, 2-{[4-({6-[(4-cyano-2-fluorophenyl)methyl]pyridin-2-yl}oxy)piperidin-1-yl]methyl}-1-{[(2S)-oxetan-2-yl]methyl}-1H-1,3-benzodiazole-6-carboxylic acid] | 8.7 |  |
| N#Cc1ccc(Cc2cccc(OC3CCN(Cc4nc5ccc(C(=O)O)nc5n4C[C@@H]4CCO4)CC3)n2)c(F)c1 [Compound 136a, 2-{[4-({6-[(4-cyano-2-fluorophenyl)methyl]pyridin-2-yl}oxy)piperidin-1-yl]methyl}-3-{[(2S)-oxetan-2-yl]methyl}-3H-imidazo[4,5-b]pyridine-5-carboxylic acid] | 9.4 |  |
| O=C(O)c1ccc2nc(CN3CCC(Oc4nc(Cc5ccc(Cl)cc5F)ccc4Cl)CC3)n(C[C@@H]3CCO3)c2n1 [Compound 137a, 2-{[4-({3-chloro-6-[(4-chloro-2-fluorophenyl)methyl]pyridin-2-yl}oxy)piperidin-1-yl]methyl}-3-{[(2S)-oxetan-2-yl]methyl}-3H-imidazo[4,5-b]pyridine-5-carboxylic acid] | 7.3 |  |
| O=C(O)c1ccc2nc(CN3CCC(n4ccc5ccc(Cc6ccc(Cl)cc6F)nc54)CC3)n(C[C@@H]3CCO3)c2n1 [Compound 140a, 2-[(4-{6-[(4-chloro-2-fluorophenyl)methyl]-1H-pyrrolo[2,3-b]pyridin-1-yl}piperidin-1-yl)methyl]-3-{[(2S)-oxetan-2-yl]methyl}-3H-imidazo[4,5-b]pyridine-5-carboxylic acid] | 8.9 |  |
| O=C(O)c1ccc2nc(CN3CCC(c4cccc5cn(Cc6ccc(Cl)cc6F)nc45)CC3)n(C[C@@H]3CCO3)c2n1 [Compound 142a, (S)-2-((4-(2-(4-chloro-2-fluorobenzyl)-2H-indazol-7-yl)piperidin-1-yl)methyl)-3-(oxetan-2-ylmethyl)-3H-imidazo[4,5-b]pyridine-5-carboxylic acid] | 8.8 |  |
| O=C(O)c1ccc2nc(CN3CCC(c4cccc5nc(Cc6ccc(Cl)cc6F)oc45)CC3)n(C[C@@H]3CCO3)c2n1 [Compound 143a, (S)-2-((4-(2-(4-chloro-2-fluorobenzyl)benzo[d]oxazol-7-yl)piperidin-1-yl)methyl)-3-(oxetan-2-ylmethyl)-3H-imidazo[4,5-b]pyridine-5-carboxylic acid] |  | GLP1R cAMP Stimulation DR: pEC50 (30 min, 37° C.): 9.3 |
| O=C(O)c1ccc2nc(CN3CCC(Oc4ccc(=O)n(Cc5ccc(Cl)cc5F)n4)CC3)n(C[C@@H]3CCO3)c2n1 [Compound 144a, 2-{[4-({1-[(4-chloro-2-fluorophenyl)methyl]-6-oxo-1,6-dihydropyridazin-3-yl}oxy)piperidin-1-yl]methyl}-3-{[(2S)-oxetan-2-yl]methyl}-3H-imidazo[4,5-b]pyridine-5-carboxylic acid] | 8.3 |  |
| O=C(O)c1ccc2nc(CN3CCC(Oc4cccc(Cc5ccc(C(F)(F)F)cc5)n4)CC3)n(C[C@@H]3CCO3)c2n1 [Compound 145a, 3-{[(2S)-oxetan-2-yl]methyl}-2-({4-[(6-{[4-(trifluoromethyl)phenyl]methyl}pyridin-2-yl)oxy]piperidin-1-yl}methyl)-3H-imidazo[4,5-b]pyridine-5-carboxylic acid] | 8.5 |  |
| O=C(O)c1ccc2nc(CN3CCC(Oc4cccc(Cc5ccc(C6CC6)cc5)n4)CC3)n(C[C@@H]3CCO3)c2n1 [Compound 146a, 2-{[4-({6-[(4-cyclopropylphenyl)methyl]pyridin-2-yl}oxy)piperidin-1-yl]methyl}-3-{[(2S)-oxetan-2-yl]methyl}-3H-imidazo[4,5-b]pyridine-5-carboxylic acid] | 9.2 |  |
